Laboratory results from patent publication US20260083698A1, “Synergistic Stimulation of Mucociliary Clearance to Treat Mucus Obstruction in Cystic Fibrosis and Other Muco-Obstructive Disorders” (The Board of Trustees of the Leland Stanford Junior …, priority 2022, published 2026).

Experiments:
[1] = test system: WT ferret tracheal glands; experiment: Optical measurement of glandular mucus secretion rate, WT ferret
Description: Synergistic glandular mucus secretion in WT pigs, WT ferrets, and CF ferrets. Synergistic increases in MCCV rely partly on increased mucus secretion from submucosal glands. This hypothesis arises from evidence that combinations of [Ca^2+]i-elevating and [cAMP]i-elevating agonists produce synergistically elevated rates of mucus from submucosal glands of humans (22), pigs (24), and ferrets (21). However, in those experiments different specific concentrations of agonists were used. To determine if the same protocols used here produced synergistic increases in secretion from submucosal glands, mucus secretion rates of individual tracheal glands in WT pigs and ferrets and in CF ferrets were measured via time-lapse optical imaging (28) while stimulating them with the same concentrations of agonists and durations of exposure used for MCCV studies. All secretion rates are reported as nanoliters/min/gland. WT Ferrets gave similar results (FIG. 3D-F). […] Data for individual WT control ferrets is shown in FIG. 3E for forskolin first and in FIG. 3F for carbachol first. Optical measurement of glandular mucus secretion rate. Details are in the previous report (28). […] Stored images were analyzed by direct measurement or with ImageJ software (V. 1.50i, https://imagej.nih.gov/ij/, NIH, MD/USA).

ferret tracheal mucosa = experiment: Short circuit current (Isc), Ussing chamber, ferret; details: WT ferrets; 30 min single agonist then 30 min combined
Description: FIG. 4. Combined agonists inhibit sodium absorption and stimulate anion secretion by surface epithelia. (A) Cartoon of two electrogenic, ion transport pathways across airway apical epithelium: anion secretion increases surface fluid, Na+ absorption decreases surface fluid. The two pathways have opposite effects on fluid depth, but additive effects on short circuit current (Isc) because of their opposite valence and transport directions. (B) Raw trace of Isc across pig tracheal epithelium using Chart 4 software. After reaching a stable, unstimulated Isc (here, >2 h post-mounting), 10 μM forskolin, 0.3 μM carbachol, 10 μM benzamil, 20 μM benzopyrimido-pyrrolo-oxazinedione (BPO-27) and 200 μM niflumic acid were sequentially added at times shown. (C, D) Pig tracheal mucosa: averaged Δ Isc plots over time in response to (C) forskolin alone followed by forskolin+carbachol and (D) reversed order of agonist addition. (E & F) Ferret tracheal mucosa: averaged A Isc plots with same protocol as for pigs. Pig traces (C, D) are based on 10-12 experiments with tissues from 6 to 7 pigs. Ferret traces (E, F) are from 7 experiments with tissues from 5 ferrets. […]
(§1) Electrophysiology. […] Total tissue conductance was calculated by applying Ohm's law to the Isc deflection resulting from a 1 mV pulse across the tissues every 20 s during the experiment. […]

CF ferret tracheas = experiment: Mucociliary clearance velocity (MCCV) in ex vivo CF ferret tracheas; details: for MCCV: 10 μM forskolin, 0.3 μM carbachol, average of last 20 min of single drug period, 10 to 80 min after adding the combined agonists; for CF ferret MCCV response compared to WT ferrets: CF vs WT ferret (WT from ref 16)
Experimental: Synergistic increases of MCCV in CF ferrets and WT pigs. […] To determine if synergistic increases of MCCV could be produced in CF ferret tracheas, tracheas from 7 transgenic adult CF ferrets of mixed genotype were tested (see “Methods” section). […] SR, synergy response by the combined agonists: 19.95±4.12, (P=0.006 SR vs. Sum). Airway tissue procurement. CF ferret tissues. […] These ferrets were raised on the CFTR modulator VX770. […] Two […]/KO ferret tracheas were used for the tracheal, single gland mucus secretion rate assay. […] All isolated CF ferret tracheal trims (2-3 cm in length) were placed in DMEM culture medium immediately after euthanasia and shipped from the University of Iowa via overnight priority express. MCCV measurement. Details are in the previous reports (16,59,60). Briefly, each whole length ferret or piglet trachea, or a CF tracheal trim, was cut open along the mid-dorsal line and mounted mucosal side up onto a Sylgard elastomer platform. For pig experiments, tracheas from newborn piglets were used because tracheas from adult pigs that had been subjected to acute experiments, our source for submucosal gland experiment, had erratic MCC velocities due to epithelial damage secondary to intubation. […] Drugs were added by bath replacement with pre-warmed bath+drug(s).

pig tracheal mucosa = experiment: Short circuit current (Isc) and conductance, Ussing chamber, pig; details: WT pigs; 30 min single agonist then 30 min combined
Description: FIG. 4. Combined agonists inhibit sodium absorption and stimulate anion secretion by surface epithelia. (A) Cartoon of two electrogenic, ion transport pathways across airway apical epithelium: anion secretion increases surface fluid, Na+ absorption decreases surface fluid. The two pathways have opposite effects on fluid depth, but additive effects on short circuit current (Isc) because of their opposite valence and transport directions. (B) Raw trace of Isc across pig tracheal epithelium using Chart 4 software. After reaching a stable, unstimulated Isc (here, >2 h post-mounting), 10 μM forskolin, 0.3 μM carbachol, 10 μM benzamil, 20 μM benzopyrimido-pyrrolo-oxazinedione (BPO-27) and 200 μM niflumic acid were sequentially added at times shown. (C, D) Pig tracheal mucosa: averaged Δ Isc plots over time in response to (C) forskolin alone followed by forskolin+carbachol and (D) reversed order of agonist addition. (E & F) Ferret tracheal mucosa: averaged A Isc plots with same protocol as for pigs. Pig traces (C, D) are based on 10-12 experiments with tissues from 6 to 7 pigs. Ferret traces (E, F) are from 7 experiments with tissues from 5 ferrets.
Combined agonists stimulate epithelial surface anion secretion and inhibit Na^+ absorption. The surface epithelia also modify ASL. FIG. 4A is a cartoon of the main ion flows controlling ASL depth: anion-mediated fluid secretion increases, and Na^+-mediated fluid absorption decreases ASL depth. It was hypothesized that the combined agonists increase ASL depth and thus MCCV by stimulating secretion and inhibiting absorption (see also FIG. 6). […] With no counterbalancing absorption ASL depth is predicted to increase (dotted gold line in FIG. 6A) unless MCCV increases.
Inhibiting Na+ absorption would increase net fluid accumulation on the surface. […]
as §1

WT ferret tracheas = details: WT ferrets, obtained previously (16); cited from earlier work

SMILES	gland mucus secretion rate [1] [nanoliters/min/gland]	ΔIsc, summary plots (ferret tracheal mucosa)	MCCV (CF ferret tracheas; CF ferret tracheas) [mm/min]	effect on MCCV (CF ferret tracheas; CF ferret tracheas, single agonist, 30 min)	CF ferret MCCV response compared to WT ferrets (CF ferret tracheas) [%]	averaged MCCV of T10-30 to 0.3 μM carbachol in ferret (E) relative to ferrets (A) and (C) (CF ferret tracheas; individual CF ferrets, FIG. 7)	ΔIsc, summary plots (pig tracheal mucosa)	MCCV (WT ferret tracheas) [mm/min]
C[N+](C)(C)CCOC(N)=O [carbachol]	0.94±0.28	decreased directly or after a transient increase	3.29±2.08	only a small increase	~40	less than 5%	decreased directly or after a transient increase	8.24±0.82
C=C[C@@]1(C)CC(=O)[C@]2(O)[C@@]3(C)[C@@H](O)CCC(C)(C)[C@@H]3[C@H](O)[C@H](OC(C)=O)[C@@]2(C)O1 [forskolin]	0.26±0.07		0.18±0.09		~0			
